Experiments:
male mice = experiment: 50% lethal dose (LD50) by the up and down method; therapeutic index; type: in vivo; conditions: for Therapeutic index: ratio of LD50 to ED50
[1] = as above; type: in vivo; conditions: mouse, in vivo; male mice, bodyweight 18 to 22 g; up and down method
[2] = test system: ventricular flutter and fibrillation; experiment: Antiarrhythmic activity: prevention of ventricular flutter and fibrillation in mice caused to inhale chloroform; type: in vivo, male mice of ddy strain; conditions: for ED50: Mus musculus, sc, 0.5 h, subcutaneous, 30 minutes before chloroform inhalation, Litchfield and Wilcoxon, 95% confidence limit in parentheses
Procedure: In accordance with the method described by J. W. Lawson [Journal of pharmacology and Experimental Therapeutics, 160, 22, (1966)], male mice of ddy strain were caused to inhale chloroform and when respiration was arrested, electrocardiography was performed to observe the ventricular flutter and fibrillation. These abnormalities of the cardiac ventricle are prevented if an antiarrhythmic agent is previously administered. Several different doses of the compound of this invention were subctaneously administered to mice in group of 29 to 40 animals and, after an interval of 30 minutes, the animals were caused to inhale chloroform. The prophylactic effects of these doses on ventricular flutter and fibrillation were estimated and the 50% effective dose (ED50) and its 95% confidence limit were calculated by the method of Litchfield and Wilcoxon [Journal of Pharmacology and Experimental Therapeutics 96, 99, (1949)].

`Cc1cccc(C)c1NC(=O)C(c1ccccc1)C12CCCN1CCC2` (stereo not drawn) showed a Therapeutic index (male mice) of 7.1, an LD50 [1] of 22 mg/kg and an ED50 [2] of 3.1 mg/kg.

In the case of `Cc1ccc(NC(=O)C(C)C23CCCN2CCC3)cc1` (stereo not drawn), the Therapeutic index (male mice) is reported as 3.4, the LD50 [1] is reported as 400 mg/kg and the ED50 [2] is reported as 115 mg/kg.

Work on `Cc1cccc(C)c1NC(=O)C(C)C12CCCN1CCC2` (stereo not drawn) [N-(2,6-dimethylphenyl)-2-(8-pyrrolizidine)propionamide] yielded a Therapeutic index (male mice) of 4.0, an LD50 [1] of 92.1 mg/kg and an ED50 [2] of 23 mg/kg.

With `Cc1cccc(C)c1NC(=O)[C@H](C)C12CCCN1CCC2` [(2R)(-)SUN3341, N-(2,6-dimethylphenyl)-2-(8-pyrrolizidine)propionamide] the “toxicity relative to the racemic compound” value (male mice; in words, versus racemic compound) was “comparable to the racemic compound in toxicity”, the Therapeutic index (male mice) was 26.0 and the “therapeutic index, in words” value (male mice; versus racemic compound) was “remarkably improved therapeutic index”. For the same compound, the LD50 [1] was 67.6 mg/kg, the ED50 [2] was 2.6 mg/kg and the “antiarrhythmic activity relative to the racemic compound” value ([2]; versus racemic compound [(±)-compound]) was “approximately 9 times”.

`CCC(C(=O)Nc1c(C)cccc1C)C12CCCN1CCC2` (stereo not drawn) gave a Therapeutic index (male mice) of 3.1, an LD50 [1] of 26 mg/kg and an ED50 [2] of 8.5 mg/kg.

`Cc1cccc(C)c1NC(=O)[C@@H](C)C12CCCN1CCC2` [(2S)(+)-SUN3341, N-(2,6-dimethylphenyl)-2-(8-pyrrolizidine)propionamide] gave a Therapeutic index (male mice) of 3.3, an LD50 [1] of 79.3 mg/kg and an ED50 [2] of 24 mg/kg.

— patent US4831049A, “Pyrrolizidine compounds, and their use as antiarrhythmic agents” (Suntory Limited, priority 1984, dated 1989)
